Data published in patent US20160177259A1, “[…]” (Evonik Degussa GmbH, priority 2014, published 2016).

Tests used:
Clostridium ljungdahlii [1] = assay: Autotrophic production of ethanol and acetate in carbonate buffer on synthesis gas with varying L-cysteine HCl (Example 1); assay type: cell-based
Protocol: (§1) For the production, anaerobic carbonate buffer (adjusted with KOH 1.4 g/L) was used. The only addition to the buffer was L-cysteine HCl at different concentrations.
(§2) For identical autotrophic productions, 500 mL septum bottles were filled with 100 mL carbonate buffer and shaken at 150 min^−1 in an open shaking water bath shaker Innova 3100 by New Brunswick Scientific. The reactions were carried out at 37° C. with manual control of the pH. Once the pH dropped below 5.5, KOH was replenished from a stock solution of 140 g/L. In the present experiments the pH in both reactors were checked at the following points in time 50.3 h, 73.3 h and corrected by the addition of each 1.4 g/L KOH manually.
(§3) The reactors were inoculated with a synthesis gas mixture of 67% H2 and 33% CO2 and pressure of 0.8 bar applied. To replenish the depleted gas, the gas above the reactors was replaced once a day and again the pressure brought to 0.8 bars.
(§4) The reactor was started by seeding autotrophic grown cells at an OD of 0.2. The preculture was carried out continuously in a 1 L bottle with 500 mL complex medium. The complex medium consisting of 1 g/lNH4Cl, 0.1 g/l KCl, 0.2 g/l MgSO4 ×7 H2O, 0.8 g/l NaCl, 0.1 g/l KH2PO4, 20 mg/l CaCl2 ×2 H2O, 20 g/l MES, 1 g/l yeast extract, 0.4 g/L L-Cysteine-HC1, 20 mg/l nitrilotriacetic acid, 10 mg/l MnSO4×H2O, 8 mg/l (NH4)2Fe(SO4)2×6 H2O, 2 mg/l CoCl2×6 H2O, 2 mg/l ZnSO4 33 7 H2O, 0.2 mg/l CuCl 2 33 2 H2O, 0.2 mg/l Na2MoO4×2 H2O, 0.2 mg/l NiCl2×6 H2O, 0.2 mg/l Na2SeO4, 0.2 mg/l Na2WO4×2 H2O, 20 μg/l d-Biotin, 20 μg/l folic acid, 100 μg/l pyridoxine HCl, 50μg/l thiamine-HCl×H2O, 50 μg l of riboflavin, 50 μg/l nicotinic acid, 50 μg/l Ca-pantothenate, 1 μg/l vitamin B12, 50μg/l p-aminobenzoate, 50 μg/l lipoic acid. The culture was then gassed continuously with synthesis gas (67% H2, 33% CO2) at a flow rate of 3 l/h over a filter with pore size 10 microns. The cells were in late log phase growth at an OD of 0.37 and where anaerobically centrifuged (4500 rpm, 4300 g, 20° C., 10 min). The supernatant was discarded and the cell pellet resuspended in 10 ml carbonate buffer. The prepared cells were then used to inoculate the actual tests.
(§5) When sampling each 5 ml sample was removed for determination of OD600, pH and the product spectrum. The determination of the product concentration was performed using quantitative 1H-NMR spectroscopy. As an internal quantification standard sodium trimethylsilylpropionate was used (T(M)SP).

Clostridium ljungdahlii [2] = assay: Example 1 redone at shaking speed 100 min-1 (Example 1b); assay type: cell-based
Protocol: as §1, §2, §3, §4, §5
The example 1 above was redone with only a difference in the shaking speed on the septum bottles for autotrophic productions. The shaking speed used was 100 min^−1.
A reporting error in example 1 was noticed where the results of cysteine for reactor 1 and 2 were switched.

[3] = reactor 1, 0.1 g/L L-Cysteine-HCl, 150 min-1, 0.0 h
[4] = reactor 1, 0.1 g/L L-Cysteine-HCl, 150 min-1, 24.5 h
[5] = reactor 1, 0.1 g/L L-Cysteine-HCl, 150 min-1, 50.3 h
[6] = reactor 1, 0.1 g/L L-Cysteine-HCl, 150 min-1, 73.3 h
[7] = reactor 1, 0.1 g/L L-Cysteine-HCl, 150 min-1, 92.3 h
[8] = reactor 2, 0.4 g/L L-Cysteine-HCl, 150 min-1, 0.0 h
[9] = reactor 2, 0.4 g/L L-Cysteine-HCl, 150 min-1, 24.5 h
[10] = reactor 2, 0.4 g/L L-Cysteine-HCl, 150 min-1, 50.3 h
[11] = reactor 2, 0.4 g/L L-Cysteine-HCl, 150 min-1, 73.3 h
[12] = reactor 2, 0.4 g/L L-Cysteine-HCl, 150 min-1, 92.3 h
[13] = reactor 1, 0.1 g/L L-Cysteine-HCl, 100 min-1, 0.0 h
[14] = reactor 1, 0.1 g/L L-Cysteine-HCl, 100 min-1, 24.5 h
[15] = reactor 1, 0.1 g/L L-Cysteine-HCl, 100 min-1, 50.3 h
[16] = reactor 1, 0.1 g/L L-Cysteine-HCl, 100 min-1, 73.3 h
[17] = reactor 1, 0.1 g/L L-Cysteine-HCl, 100 min-1, 92.3 h
[18] = reactor 2, 0.4 g/L L-Cysteine-HCl, 100 min-1, 0.0 h
[19] = reactor 2, 0.4 g/L L-Cysteine-HCl, 100 min-1, 24.5 h
[20] = reactor 2, 0.4 g/L L-Cysteine-HCl, 100 min-1, 50.3 h
[21] = reactor 2, 0.4 g/L L-Cysteine-HCl, 100 min-1, 73.3 h
[22] = reactor 2, 0.4 g/L L-Cysteine-HCl, 100 min-1, 92.3 h

`Cl.N[C@@H](CS)C(=O)O` [L-Cysteine-HCl, L-cysteine hydrochloride] was tested, and the “concentrations of ethanol and acetate” value (Clostridium ljungdahlii [1]; 0.1 g/L compared with 0.4 g/L L-cysteine-HCl, after 92.3 h) was “higher”, the “Acetate (NMR)” value (Clostridium ljungdahlii [1]; [3]) was 13 mg/L and the “Ethanol (NMR)” value (Clostridium ljungdahlii [1]; [3]) was 6 mg/L. The OD600 (Clostridium ljungdahlii [1]; [3]) was 0.25, the “Acetate (NMR)” value (Clostridium ljungdahlii [1]; [4]) was 1418 mg/L and the “Ethanol (NMR)” value (Clostridium ljungdahlii [1]; [4]) was 19 mg/L. For the same compound, the OD600 (Clostridium ljungdahlii [1]; [4]) was 0.25, the Δp (Clostridium ljungdahlii [1]; [4]) was 0.6 bar and the “Acetate (NMR)” value (Clostridium ljungdahlii [1]; [5]) was 2556 mg/L. For the same compound, the “Ethanol (NMR)” value (Clostridium ljungdahlii [1]; [5]) was 130 mg/L, the OD600 (Clostridium ljungdahlii [1]; [5]) was 0.30 and the Δp (Clostridium ljungdahlii [1]; [5]) was 0.6 bar. For the same compound, the OD600 (Clostridium ljungdahlii [1]; [6]) was 0.30, the Δp (Clostridium ljungdahlii [1]; [6]) was 0.6 bar and the “Acetate (NMR)” value (Clostridium ljungdahlii [1]; [7]) was 6960 mg/L. The “Ethanol (NMR)” value (Clostridium ljungdahlii [1]; [7]) was 321 mg/L, the OD600 (Clostridium ljungdahlii [1]; [7]) was 0.26 and the Δp (Clostridium ljungdahlii [1]; [7]) was 0.4 bar. The total gas consumption (Clostridium ljungdahlii [1]; reactor 1 with 0.1 g/L compared with reactor with 0.4 g/L L-cysteine-HCl, over 92.3 h) was “higher”, the “Acetate (NMR)” value (Clostridium ljungdahlii [1]; [8]) was 15 mg/L and the “Ethanol (NMR)” value (Clostridium ljungdahlii [1]; [8]) was 8 mg/L. The OD600 (Clostridium ljungdahlii [1]; [8]) was 0.24, the “Acetate (NMR)” value (Clostridium ljungdahlii [1]; [9]) was 2331 mg/L and the “Ethanol (NMR)” value (Clostridium ljungdahlii [1]; [9]) was 27 mg/L. The OD600 (Clostridium ljungdahlii [1]; [9]) was 0.23, the Δp (Clostridium ljungdahlii [1]; [9]) was 0.6 bar and the “Acetate (NMR)” value (Clostridium ljungdahlii [1]; [10]) was 3197 mg/L. The “Ethanol (NMR)” value (Clostridium ljungdahlii [1]; [10]) was 128 mg/L, the OD600 (Clostridium ljungdahlii [1]; [10]) was 0.26 and the Δp (Clostridium ljungdahlii [1]; [10]) was 0.5 bar. For the same compound, the OD600 (Clostridium ljungdahlii [1]; [11]) was 0.22, the Δp (Clostridium ljungdahlii [1]; [11]) was 0.3 bar and the “Acetate (NMR)” value (Clostridium ljungdahlii [1]; [12]) was 5067 mg/L. The “Ethanol (NMR)” value (Clostridium ljungdahlii [1]; [12]) was 150 mg/L, the OD600 (Clostridium ljungdahlii [1]; [12]) was 0.22 and the Δp (Clostridium ljungdahlii [1]; [12]) was 0.3 bar. For the same compound, the “Acetate (NMR)” value (Clostridium ljungdahlii [2]; [13]) was 13 mg/L, the “Ethanol (NMR)” value (Clostridium ljungdahlii [2]; [13]) was 6 mg/L and the OD600 (Clostridium ljungdahlii [2]; [13]) was 0.25. The “Acetate (NMR)” value (Clostridium ljungdahlii [2]; [14]) was 1418 mg/L, the “Ethanol (NMR)” value (Clostridium ljungdahlii [2]; [14]) was 19 mg/L and the OD600 (Clostridium ljungdahlii [2]; [14]) was 0.25. The Δp (Clostridium ljungdahlii [2]; [14]) was 0.6 bar, the “Acetate (NMR)” value (Clostridium ljungdahlii [2]; [15]) was 2556 mg/L and the “Ethanol (NMR)” value (Clostridium ljungdahlii [2]; [15]) was 130 mg/L. It also gave an OD600 (Clostridium ljungdahlii [2]; [15]) of 0.30, a Δp (Clostridium ljungdahlii [2]; [15]) of 0.6 bar and an OD600 (Clostridium ljungdahlii [2]; [16]) of 0.30. For the same compound, the Δp (Clostridium ljungdahlii [2]; [16]) was 0.6 bar, the “Acetate (NMR)” value (Clostridium ljungdahlii [2]; [17]) was 6960 mg/L and the “Ethanol (NMR)” value (Clostridium ljungdahlii [2]; [17]) was 321 mg/L. The OD600 (Clostridium ljungdahlii [2]; [17]) was 0.26, the Δp (Clostridium ljungdahlii [2]; [17]) was 0.4 bar and the “Acetate (NMR)” value (Clostridium ljungdahlii [2]; [18]) was 15 mg/L. The “Ethanol (NMR)” value (Clostridium ljungdahlii [2]; [18]) was 8 mg/L, the OD600 (Clostridium ljungdahlii [2]; [18]) was 0.24 and the “Acetate (NMR)” value (Clostridium ljungdahlii [2]; [19]) was 2331 mg/L. The “Ethanol (NMR)” value (Clostridium ljungdahlii [2]; [19]) was 27 mg/L, the OD600 (Clostridium ljungdahlii [2]; [19]) was 0.23 and the Δp (Clostridium ljungdahlii [2]; [19]) was 0.6 bar. The “Acetate (NMR)” value (Clostridium ljungdahlii [2]; [20]) was 3197 mg/L, the “Ethanol (NMR)” value (Clostridium ljungdahlii [2]; [20]) was 128 mg/L and the OD600 (Clostridium ljungdahlii [2]; [20]) was 0.26. The Δp (Clostridium ljungdahlii [2]; [20]) was 0.5 bar, the OD600 (Clostridium ljungdahlii [2]; [21]) was 0.22 and the Δp (Clostridium ljungdahlii [2]; [21]) was 0.3 bar. For the same compound, the “Acetate (NMR)” value (Clostridium ljungdahlii [2]; [22]) was 5067 mg/L, the “Ethanol (NMR)” value (Clostridium ljungdahlii [2]; [22]) was 150 mg/L and the OD600 (Clostridium ljungdahlii [2]; [22]) was 0.22. The Δp (Clostridium ljungdahlii [2]; [22]) was 0.3 bar.
